In patent publication US20220340564A1, “ANTIBACTERIAL COMPOUNDS” (Janssen Sciences Ireland Unlimited Company, priority 2019, published 2022):

Tests used:
[1] = tested on: Mycobacterium tuberculosis strain EH4.0 expressing green-fluorescent protein (GFP); assay: microbe, parasite or virus in culture; assay type: cell-based; conditions: 168 h, read-out: pIC50 (converted)
[2] = tested on: Na Ch; assay: CVS panel, Na channel
[3] = tested on: Ca Ch; assay: CVS panel, Ca channel
Text: (§1) The compounds of the invention/examples may have advantages associated with in vitro potency, kill kinetics (i.e. bactericidal effect) in vitro, PK properties, food effect, safety/toxicity (including liver toxicity, coagulation, […]), metabolic stability, Ames II negativity, MNT negativity, aqueous based solubility (and ability to formulate) and/or cardiovascular effect e.g. on animals (e.g. anesthetized guinea pig). The data below that was generated/calculated may be obtained using standard methods/assays, for instance that are available in the literature or which may be performed by a supplier (e.g. Microsomal Stability Assay—Cyprotex, Mitochondrial toxicity (Glu/Gal) assay —Cyprotex, as well as literature CYP cocktail inhibition assays). In some instances, GSH was measured (reactive metabolites, glucuronidation) to observe if a dihydrodiol is observed by LCMS (fragmentation ions), which would correspond to a dihydroxylation on the core heterocycle.

[4] = molecular target: hERGdof (Homo sapiens, UniProt Q12809); assay: CVS panel, hERGdof; assay type: binding; conditions: read-out: CVS hERGdof, IC50
Chain of hERGdof (Q12809 whole entry, canonical isoform): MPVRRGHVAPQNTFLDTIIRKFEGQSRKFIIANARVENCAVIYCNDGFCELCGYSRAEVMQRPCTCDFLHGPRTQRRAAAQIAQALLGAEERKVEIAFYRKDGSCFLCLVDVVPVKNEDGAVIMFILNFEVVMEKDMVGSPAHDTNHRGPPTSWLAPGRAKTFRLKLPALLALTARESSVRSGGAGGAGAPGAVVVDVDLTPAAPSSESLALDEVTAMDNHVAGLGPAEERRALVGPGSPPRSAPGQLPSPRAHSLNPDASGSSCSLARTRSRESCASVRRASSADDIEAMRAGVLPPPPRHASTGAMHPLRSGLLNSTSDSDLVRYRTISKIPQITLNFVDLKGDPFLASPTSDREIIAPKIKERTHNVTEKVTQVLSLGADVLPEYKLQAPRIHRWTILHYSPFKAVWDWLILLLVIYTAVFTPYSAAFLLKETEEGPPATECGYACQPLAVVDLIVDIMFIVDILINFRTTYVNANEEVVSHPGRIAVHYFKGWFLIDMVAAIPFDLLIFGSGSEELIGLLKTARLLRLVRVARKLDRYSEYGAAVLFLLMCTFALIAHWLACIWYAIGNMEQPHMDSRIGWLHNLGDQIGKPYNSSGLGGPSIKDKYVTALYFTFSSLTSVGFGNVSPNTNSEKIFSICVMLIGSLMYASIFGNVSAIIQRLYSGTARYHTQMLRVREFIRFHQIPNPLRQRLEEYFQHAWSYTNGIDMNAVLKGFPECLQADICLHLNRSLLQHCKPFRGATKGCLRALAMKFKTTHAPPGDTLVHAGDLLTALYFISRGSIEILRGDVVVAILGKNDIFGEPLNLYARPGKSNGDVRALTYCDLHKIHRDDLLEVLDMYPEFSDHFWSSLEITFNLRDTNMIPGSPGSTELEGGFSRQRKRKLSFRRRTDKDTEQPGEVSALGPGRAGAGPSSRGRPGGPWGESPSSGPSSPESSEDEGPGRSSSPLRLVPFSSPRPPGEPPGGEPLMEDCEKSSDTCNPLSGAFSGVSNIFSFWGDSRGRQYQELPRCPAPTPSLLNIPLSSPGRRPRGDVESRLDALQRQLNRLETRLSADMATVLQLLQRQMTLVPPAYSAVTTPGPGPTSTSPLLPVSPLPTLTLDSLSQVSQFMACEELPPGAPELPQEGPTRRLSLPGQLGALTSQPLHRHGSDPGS

[5] = tested on: Cyp-450 (cocktail, isoforms not named); assay: Cocktail Cyp-450 inhibition; assay type: in vitro ADME; conditions: unit inferred; read-out: Cocktail Cyp-450, IC50
Text: as §1

[6] = Microsomal stability CLint (H); conditions: human, microsomes
[7] = Microsomal stability CLint (M); conditions: mouse, microsomes
[8] = GSH (GSH/CN) reactive metabolite measurement; assay type: in vitro ADME
Text: as §1

[9] = Mitochondrial toxicity (Glu/Gal) assay; assay type: cell-based
Text: as §1

[10] = in vivo
[11] = molecular target: hERG (Homo sapiens, UniProt Q12809); assay: CVS panel, hERGdof; assay type: binding; conditions: human
Chain of hERG (Q12809 whole entry): as the sequence (Q12809 whole entry, canonical isoform) above

[12] = in vitro; conditions: human, microsomes
[13] = in vitro; conditions: mouse, microsomes

Structure (SMILES)	IC50 [1]	also measured
CCc1nc2ccc(Cl)cn2c1C(=O)NCc1ccc(N2CCN(S(=O)(=O)C(F)(F)F)C=N2)cc1F [Compound 16]	6.31 nM	IC50 [2]: > 10000 nM; IC50 [3]: > 10000 nM; IC50 [4]: > 10000 nM; IC50 [5]: > 20000 nM; microsomal CLint [6]: 24 µL/min/mg; microsomal CLint [7]: 18 µL/min/mg
O=C(NCc1ccc(N2CCN(S(=O)(=O)C(F)(F)F)C=N2)c(F)c1)c1c(C(F)(F)F)nc2ccccn12 [Compound 152]	2 nM	GSH / reactive metabolites [8]: formation of reactive metabolites was blocked; Glu/Gal assay ratio (mitotoxicity) [9]: < 3; bioavailability (as shown in rodents) [10]: good bioavailaibility
CCc1nc2ncc(Cl)cn2c1C(=O)NCc1ccc(N2CCN(S(=O)(=O)C(F)(F)F)C=N2)cc1 [Compound 13]	3.98 nM	IC50 [2]: > 10000 nM; IC50 [3]: > 10000 nM; IC50 [11]: 7400 nM; IC50 [5]: > 20000 nM; microsomal CLint [6]: 16.3 µL/min/mg; microsomal CLint [7]: 13.3 µL/min/mg
CCc1nc2ccc(Cl)cn2c1C(=O)NCc1ccc(N2CCN(S(=O)(=O)C(F)(F)F)C=N2)c(F)c1 [Compound 9]	0.631 nM	IC50 [2]: > 10000 nM; IC50 [3]: > 10000 nM; IC50 [4]: > 10000 nM; IC50 [5]: > 20000 nM; microsomal CLint [6]: 19 µL/min/mg; microsomal CLint [7]: 41 µL/min/mg
CCc1nc2ccc(C#N)cn2c1C(=O)NCc1ccc(N2CCN(S(=O)(=O)C(F)(F)F)C(OC)=N2)c(F)c1 [Compound 73]	51.3 nM	IC50 [2]: > 10000 nM; IC50 [3]: > 10000 nM; IC50 [4]: > 10000 nM; IC50 [5]: > 20000 nM; GSH / reactive metabolites [8]: no measure of GSH; microsomal CLint [12]: 18 µL/min/mg; microsomal CLint [13]: 93 µL/min/mg
CCc1nc2ccc(Cl)cn2c1C(=O)NCc1ccc(N2CCN(S(=O)(=O)C(F)(F)F)C(OC)=N2)cc1 [Compound 6]	6.31 nM	IC50 [2]: > 10000 nM; IC50 [3]: > 10000 nM; IC50 [4]: > 10000 nM; IC50 [5]: > 20000 nM; GSH / reactive metabolites [8]: no measure of GSH; Glu/Gal assay ratio (mitotoxicity) [9]: < 3; microsomal CLint [12]: 37.6 µL/min/mg; microsomal CLint [13]: 49 µL/min/mg
O=C(NCc1ccc(N2CCN(S(=O)(=O)C(F)(F)F)C=N2)cc1)c1c(C(F)F)nc2ccccn12 [Compound 128]	9.12 nM	
CCc1nc2nc(C)c(F)cn2c1C(=O)NCc1ccc(N2CCN(S(=O)(=O)C(F)(F)F)C=N2)c(F)c1 [Compound 177]	7.94 nM	
CCc1nc2cc3c(cn2c1C(=O)NCc1ccc(N2CCN(S(=O)(=O)C(F)(F)F)C=N2)c(F)c1)CCC3 [Compound 113]	16.2 nM	
COC1=NN(c2ccc(CNC(=O)c3c(C(F)(F)F)nc4ccccn34)cc2)CCN1S(=O)(=O)C(F)(F)F [Compound 150]	2.95 nM	
CCc1nc2n(c1C(=O)NCc1ccc(N3CCN(S(=O)(=O)C(F)(F)F)C=N3)cc1)CCCC2 [Compound 3]	31.6 nM	
CCc1nc2ncc(C)cn2c1C(=O)NCc1ccc(N2CCN(S(=O)(=O)C(F)(F)F)C(OC)=N2)cc1 [Compound 200]	5.5 nM	
COC1=NN(c2ccc(CNC(=O)c3c(C(F)F)nc4ccccn34)cc2)CCN1S(=O)(=O)C(F)(F)F [Compound 149]	3.55 nM	
CCc1nc2cc(C)c(C)cn2c1C(=O)NCc1cnc(N2CCN(S(=O)(=O)C(F)(F)F)C=N2)c(F)c1 [Compound 185]	46.8 nM	
Cc1cc(F)c2ncc(C(=O)NCc3ccc(N4CCN(S(=O)(=O)C(F)(F)F)C=N4)c(F)c3)n2c1 [Compound 173]	50.1 nM	
CCc1nc2ncc(C)cn2c1C(=O)NCc1cnc(N2CCN(S(=O)(=O)C(F)(F)F)C=N2)c(F)c1 [Compound 201]	12 nM	
CCc1nc2ccc(Cl)cn2c1C(=O)NCc1ccc(N2CCN(S(=O)(=O)C(F)(F)F)C=N2)c(C)c1 [Compound 5]	7.94 nM	
CCc1nc2ccc(Cl)cn2c1C(=O)NCc1ccc(N2CCNC(OC)=N2)c(F)c1 [Compound 110]	18.6 nM	
CCc1nc2cc(C)c(Cl)cn2c1C(=O)NCc1ccc(N2CCN(S(=O)(=O)C(F)(F)F)C=N2)c(F)c1 [Compound 116]	15.1 nM	
CCOc1ccc2nc(CC)c(C(=O)NCc3ccc(N4CCN(S(=O)(=O)C(F)(F)F)C=N4)cc3)n2c1 [Compound 43]	10 nM	
CCc1nc2nc(C)ccn2c1C(=O)NCc1ccc(N2CCN(S(=O)(=O)C(F)(F)F)C=N2)c(F)c1 [Compound 111]	18.2 nM	
CCc1nc2n(c1C(=O)NCc1ccc(N3CCNC=N3)cc1)CCCC2 [Compound 57]	≥ 501 nM	
CCc1nc2ccc(C3CC3)cn2c1C(=O)NCc1ccc(N2CCN(S(=O)(=O)C(F)(F)F)C=N2)c(F)c1 [Compound 101]	29.5 nM	
CCc1nc2cc(Br)c(Cl)cn2c1C(=O)NCc1ccc(N2CCN(S(=O)(=O)C(F)(F)F)C=N2)c(F)c1 [Compound 103]	28.2 nM	
CCc1nc2ccc(Cl)cn2c1C(=O)NCc1cnc(N2CCN(S(=O)(=O)C(F)(F)F)C=N2)c(C)c1 [Compound 208]	69.2 nM	
CCc1nc2cc(Br)c(C)cn2c1C(=O)NCc1ccc(N2CCN(S(=O)(=O)C(F)(F)F)C=N2)c(F)c1 [Compound 97]	33.9 nM	

Structure (SMILES)	IC50 [1]	also measured
O=C(NCc1cnc(N2CCN(S(=O)(=O)C(F)(F)F)C=N2)c(F)c1)c1c(C(F)(F)F)nc2ccc(Cl)cn12 [Compound 167]	87.1 nM	
COC1=NN(c2ccc(CNC(=O)c3c(C(F)(F)F)nc4ccccn34)cc2F)CCN1S(=O)(=O)C(F)(F)F [Compound 79]	3.72 nM	
CCc1nc2ccc(Cl)cn2c1C(=O)NCc1ccc(N2CCN(S(=O)(=O)C(F)(F)F)C(C)=N2)cc1 [Compound 21]	2.51 nM	
CCc1nc2c(C)cc(Cl)cn2c1C(=O)NCc1ccc(N2CCN(S(=O)(=O)C(F)(F)F)C=N2)c(F)c1 [Compound 85]	95.5 nM	
CCc1nc2ccc(Cl)cn2c1C(=O)NCc1ccc(N2CCN(Cc3nc(C(F)(F)F)cs3)C=N2)cc1 [Compound 69]	126 nM	
CCc1nc2nc3c(cn2c1C(=O)NCc1ccc(N2CCN(S(=O)(=O)C(F)(F)F)C(OC)=N2)c(F)c1)CCOC3 [Compound 180]	3.98 nM	
CCc1nc2ccc(Cl)cn2c1C(=O)NCc1ccc(N2CCN(S(=O)(=O)C(F)(F)F)C(CC#N)=N2)cc1 [Compound 77]	7.94 nM	
CCc1nc2n(ccc3ncnn32)c1C(=O)NCc1ccc(N2CCN(S(=O)(=O)C(F)(F)F)C=N2)c(F)c1 [Compound 207]	186 nM	
CCc1nc2ccc(Cl)cn2c1C(=O)NCc1ccc(N2CCN(C=O)C=N2)cc1 [Compound 38]	63.1 nM	
CCc1nc2ncc(C)cn2c1C(=O)NCc1ccc(N2CCN(S(=O)(=O)C(F)(F)F)C(OC)=N2)c(F)c1 [Compound 193]	0.891 nM	
O=C(NCc1ccc(N2CCN(S(=O)(=O)C(F)(F)F)C=N2)c(F)c1)c1c(C(F)F)nc2n1CCCC2 [Compound 147]	3.8 nM	
CCc1nc2nc3c(cn2c1C(=O)NCc1ccc(N2CCN(S(=O)(=O)C(F)(F)F)C(OC)=N2)c(F)c1)CCC3 [Compound 158]	1.38 nM	
COC1=NN(c2ccc(CNC(=O)c3c(C(F)(F)F)nc4n3CCCC4)cc2)CCN1S(=O)(=O)C(F)(F)F [Compound 98]	33.1 nM	
CCc1nc2ncc(Cl)cn2c1C(=O)NCc1ccc(N2CCN(S(=O)(=O)CC(C)C)C=N2)cc1 [Compound 23]	12.6 nM	
CCc1nc2nc3c(cn2c1C(=O)NCc1ccc(N2CCN(S(=O)(=O)C(F)(F)F)C=N2)c(F)c1)OCCN3C [Compound 205]	66.1 nM	
CCc1nc2ccc(Cl)cn2c1C(=O)NCc1ccc(N2CCN(S(=O)(=O)C(F)(F)F)C(C)=N2)c(F)c1 [Compound 213]	3.47 nM	
CCc1nc2nc(OC)c(Cl)cn2c1C(=O)NCc1ccc(N2CCN(S(=O)(=O)C(F)(F)F)C=N2)c(F)c1 [Compound 86]	89.1 nM	
CCc1nc2cc(OC)c(C)cn2c1C(=O)NCc1ccc(N2CCN(S(=O)(=O)C(F)(F)F)C=N2)c(F)c1 [Compound 106]	25.7 nM	
CCc1nc2cc(OC)c(Cl)cn2c1C(=O)NCc1ccc(N2CCN(S(=O)(=O)C(F)(F)F)C(OC)=N2)c(F)c1 [Compound 46]	100 nM	
CCc1nc2ccc(C)cn2c1C(=O)NCc1ccc(N2CCN(S(=O)(=O)C(F)(F)F)C=N2)c(F)c1 [Compound 164]	0.245 nM	
CCc1nc2ccc(Cl)cn2c1C(=O)NCc1ccc(N2CCN(C)C(C)=N2)cc1 [Compound 59]	200 nM	
COC1=NN(c2ccc(CNC(=O)c3c(C)nn4ccc(OC)cc34)cc2)CCN1S(=O)(=O)C(F)(F)F [Compound 34]	10 nM	
CCc1nc2ccc(Cl)cn2c1C(=O)NCc1ccc(N2CCN(S(=O)(=O)C(F)(F)F)C=N2)nc1 [Compound 171]	25.1 nM	
CCc1nc2c(F)cc(C)cn2c1C(=O)NCc1cnc(N2CCN(S(=O)(=O)C(F)(F)F)C=N2)c(F)c1 [Compound 181]	6.31 nM	
CCc1nc2nc3c(cn2c1C(=O)NCc1ccc(N2CCN(S(=O)(=O)C(F)(F)F)C=N2)c(F)c1)COCC3 [Compound 90]	74.1 nM	
O=C(NCc1ccc(N2CCN(S(=O)(=O)C(F)(F)F)C=N2)cc1)c1c(C(F)(F)F)nc2ccccn12 [Compound 127]	9.55 nM	
